On the set-up of series [1]: method as in PMID 36264934. As to conditions: dialysis, DMEM + 10% newborn calf serum, Cnom 5 μmol·L^−1, 1% DMSO; cited from earlier work.
Another series relates to HepG2 cells. More on the design: method as in PMID 37289209. Particulars: HepG2 cells 48 h, 20 mg·L^−1 BDE-47, calculated with estimated Cfree percentage, cited from earlier work.
For series [2], the system named is ZFL cells. The series is described as follows: Biotransformation of BDE-47 in ZFL cells (metabolites in cells and medium).
Details of series [3]: method as in PMID 39103099. As to conditions: binding constant to BSA protein of FBS; cited from earlier work.
Series [4] relates to ZFL cells. As to conditions: cited from earlier work; for Ratio MBM/experimental of internal concentration: ref De Oro-Carretero and Sanz-Landaluze 2024.
Series [5] in a line: Experimental determination of free bioavailable concentration (Cfree,exp) in exposure medium by SPME. In kind it is in vitro ADME. As to conditions: for Cfree, exp: 24–48 h. Here is the method:
In parallel with the exposure experiment for the evaluation of bioaccumulation and biotransformation described in the previous sections, an experiment was performed to estimate experimentally the free bioavailable concentration (Cfree,exp) in the test medium. For this purpose, an experiment was designed to simulate the test conditions, and Cfree was determined using solid-phase microextraction (SPME), following the fiber method developed by Henneberger et al..
PDMS-coated glass microfibers (30 µm thick, 13.19 µL/m coating volume) were cut into 1.5 cm pieces and cleaned in methanol for more than 24 h prior to the experiment, with the solvent replaced at least three times. The cleaned and dried fiber was placed in a glass vial with 1 mL of sample exposure medium containing 1.8 and 2.6 mg·L^−1 BDE-47. Three replicates were prepared for each condition. A portion of the initial sample was stored at −20 °C until analysis. The vials were then sealed and incubated with rotation at 28 °C for 72 h until equilibrium of BDE-47 distribution among the fiber, medium, and binding to the predominant serum protein of the culture (Bovine serum albumin, BSA) was reached. Once at equilibrium, the fibers were extracted from the vials and desorbed with 400 µL isooctane for 24 h with rotation. Finally, the extract was analyzed by GC-MS-µECD, as described in Section 2.5. The concentration of BDE-47 in the initial sample (Cmed,0h) and in the resulting media after equilibration (Cmed,eq) was determined according to the procedure described in Section 2.5, to confirm the actual mass balance.
Since this study evaluates and discusses the behavior of BDE-47 in comparison to observations from a previous study with phenanthrene, as explained in the introduction section, the experimental Cfree of phenanthrene was also determined, as it had not been measured previously. In this case, the difference in the process was that PA fibers (36 µm thick, 16.71 µL/m coating volume) were used. Samples of 10 and 20 mg·L^−1 PHE were prepared, and the fibers and samples were incubated for 24–48 h until equilibrium was reached, and desorbed with hexane for 3 h.
To determine the free concentration, concentration in the SPME fiber (Cfiber) was first estimated using Equation (1) from the concentration measured in the desorption extract (Cdes), the desorption volume (Vdes) and the coating volume of the fiber (Vfiber). This volume was estimated according to the coating volume and the length of the fiber.(1) Cfiber=Cdes·Vdes/Vfiber
Next, Cfree,exp was determined at the time before the SPME fiber was added to the system, according to Equation (2). For this, the concentration measured in the fiber equilibrated with the medium (PDMS-BDE-47-BSA or PA-PHE-BSA), the concentration measured in the initial sample (Cmed,0h), and the partition constant of the equilibrium formed between the fiber and the medium (log DPDMS/medium; BDE-47 = 5.84 [25]; log DPA/medium; PHE = 6.69 [26]) were used.(2) Cfree=Cmed,0h·Vsample/Dfiber/medium·Cmed,0h·Vsample/Cfiber−Vfiber

The conditions of series [6]: partition constant PA fiber/medium; cited from earlier work.
The test system of series [7] is ZFL cells. More on the design: method as in PMID 39103099. As to conditions: exposure to 10 mg·L^−1 PHE, previous study; cited from earlier work.
The subject of series [8] is zebrafish eleutheroembryos. Further details: method as in PMID 36705440. Particulars: zebrafish embryos 48 h, larvae samples; cited from earlier work.

Values joined by “and” are separate entries in the source; they are usually repeats but may differ in a detail not shown here. Equal entries are not always repeated. Where two headings read alike, the source gives them in different places.

In the case of `CC/C(=C(\c1ccccc1)c1ccc(OCCN(C)C)cc1)c1ccccc1` [tamoxifen], the “decrease of free concentration from the initial concentration” value in series [1] is “up to 50%”.

On to `Oc1cc(Oc2ccc(Br)cc2Br)c(Br)cc1Br` [5-OH, 5-OH-BDE-47], for which the “biotransformation ratio metabolite / BDE-47 concentration” value in the series on HepG2 cells (medium samples) is reported as 0.2.

Turning to `Oc1cc(Br)ccc1Oc1ccc(Br)cc1Br` [2′-OH-BDE-28], the “detection of the metabolite in ZFL cell and medium samples on exposure to BDE-47” value in the series with ZFL cells [2] (BDE-47 at 1.6 and 2.8 mg·L^−1, 24–72 h) is “significant and increasing concentration over time”.

As for `Oc1c(Br)ccc(Oc2ccc(Br)cc2Br)c1Br` [3-OH, 3-OH-BDE-47], the “biotransformation ratio metabolite / BDE-47 concentration” value with HepG2 cells (medium samples) is on record as 0.13. In addition, the “biotransformation ratio metabolite / free bioavailable BDE-47 concentration” value with ZFL cells [2] (medium samples, 24 h, Cnominal BDE-47 1.6 mg·L^−1) is given as 0.07; in the series on ZFL cells [2] (medium samples, 24 h, Cnominal BDE-47 2.8 mg·L^−1) it was 0.08; with ZFL cells [2] (medium samples, 48 h, Cnominal BDE-47 1.6 mg·L^−1), 0.08; in the series with ZFL cells [2] (medium samples, 48 h, Cnominal BDE-47 2.8 mg·L^−1), 0.08; in the series on ZFL cells [2] (medium samples, 72 h, Cnominal BDE-47 1.6 mg·L^−1), 0.09; with ZFL cells [2] (medium samples, 72 h, Cnominal BDE-47 2.8 mg·L^−1) it was 0.15.

For `c1ccc2c(c1)ccc1ccccc12` [PHE, phenanthrene], the “log DBSA/W” value in [3] was 3.81. The “Ratio MBM/experimental of internal concentration” value in the series on ZFL cells [4] (24h, 10 mg·L-1, ZFL cells) is recorded as 491%; in the series on ZFL cells [4] (24h, 50 mg·L-1, ZFL cells) it was 510%; with ZFL cells [4] (48h, 10 mg·L-1, ZFL cells), 532%; in the series with ZFL cells [4] (48h, 50 mg·L-1, ZFL cells) it was 449%; with ZFL cells [4] (72h, 10 mg·L-1, ZFL cells) it was 421%; in the series with ZFL cells [4] (72h, 50 mg·L-1, ZFL cells) it was 402%. Besides, in the series with ZFL cells [4] (ZFL cells, previous study), the BCFMBM was 1656 L/kg. The “ratio of MBM vs. experimental Ccell” value with ZFL cells [4] (ZFL cells, previous study) is “above 100%”. Further, in the series with ZFL cells [4] (assays with ZFL cells, previous study), the “free concentration as % of total concentration” value is 1.7%. In addition, the “% Cfree, exp” value in series [5] (Cnom 10 mg·L^−1, % of total concentration) was 2.4% and 2.4 ± 0.2%; in [5] (Cnom 20 mg·L^−1, % of total concentration) it was 2.9% and 2.9 ± 0.2%. Further, the “Cfree, exp” value in series [5] (Cnom 10 mg·L^−1, PA fiber) is “(0.22 ± 0.02) mg·L^−1”; in series [5] (Cnom 20 mg·L^−1, PA fiber), “(0.52 ± 0.04) mg·L^−1”. Also, the “log DPA/medium” value in [6] is given as 6.69. In the series on ZFL cells [7], the BCF48 h is 393 L/kg. Also, the BCFk in the series with ZFL cells [7] was 986 L/kg.

With `COc1cc(Oc2ccc(Br)cc2Br)c(Br)cc1Br` [5-MeO, 5-MeO-BDE-47], the “biotransformation ratio metabolite / BDE-47 concentration” value in the series with HepG2 cells (cell samples) was 0.10; in [8] it was 0.06–0.13. In addition, the “biotransformation ratio metabolite / free bioavailable BDE-47 concentration” value in the series with ZFL cells [2] (cell samples, 24 h, Cnominal BDE-47 1.6 mg·L^−1) worked out at 0.11; in the series on ZFL cells [2] (cell samples, 24 h, Cnominal BDE-47 2.8 mg·L^−1), 0.17; in the series with ZFL cells [2] (cell samples, 48 h, Cnominal BDE-47 1.6 mg·L^−1), 0.12; with ZFL cells [2] (cell samples, 48 h, Cnominal BDE-47 2.8 mg·L^−1), 0.18; with ZFL cells [2] (cell samples, 72 h, Cnominal BDE-47 1.6 mg·L^−1), 0.15; in the series on ZFL cells [2] (cell samples, 72 h, Cnominal BDE-47 2.8 mg·L^−1), 0.20.

Values taken from article PMC12194305, “Assessing Bioconcentration and Biotransformation of BDE-47 In Vitro: The Relevance of Bioavailable and Intracellular Concentrations” (Journal of Xenobiotics, 2025).
